Experimental data taken from article PMC11062894, “Protein-based bandpass filters for controlling cellular signaling with chemical inputs” (Nature Chemical Biology, 2023).
Where “and” joins values, the source holds several entries; their conditions need not be identical. Equal entries are not always repeated. Entries after “also recorded” stand apart in the source; their conditions may differ. Where two headings read alike, the source gives them in different places.

Key:
[1] = target: GEMS receptors with BclXL:LD3 in HEK293T cells (Homo sapiens, UniProt Q07817); assay type: cell-based
Method: HEK293T cells were seeded in a 96-well plate 24 h before transfection. The transfection mix in each well consisted of 3 ng of constitutive human CMV promoter driven mammalian STAT3 expression vector (PhCMV-STAT3-pA), 30 ng of STAT3-induced reporter expression (OStat3-PhCMVmin-SEAP-pA) and 50 ng of expression vectors for each GEMS receptor chain (PSV40-IgK-(drughigh receptor)-EpoRm-IL-6RBm-pA and PSV40-IgK-(druglow receptor-GGGGSX3-LD3)-EpoRm-IL-6RBm-pA). For the specific drughigh receptor and druglow receptor used in the different cellular assays, they are indicated as wild type or with mutations. Then, plasmid DNA was mixed with 50 μl opti-MEM (Thermo Fisher) and 600 ng of polyethyleneimine (Polysciences, catalog no. 24765-1). […]
(§1) SEAP activity (U l^−1) in cell culture supernatants was quantified by kinetic measurements at 405 nm (1 minute per measurement for 30 cycles) of absorbance increase due to phosphatase-mediated hydrolysis of para-nitrophenyl phosphate (pNPP). […]
production of HEK293T cells. […] SEAP quantifications were performed to measure the protein production and WST-8 was used to test the cell proliferation. For cell proliferation assay, WST-8 was added after 24 hours of drug incubation, and measured its absorbance at 450 nm 4 hours later. […]

[2] = system: GEMS receptors with CBPnavi (BclXL–LD3 and Bcl2), STAT3-driven SEAP in HEK293T cells; test: GEMS SEAP reporter assay, CBPnavi; assay type: cell-based
Method: HEK293T cells were seeded in a 96-well plate 24 h before transfection. The transfection mix in each well consisted of 3 ng of constitutive human CMV promoter driven mammalian STAT3 expression vector (PhCMV-STAT3-pA), 30 ng of STAT3-induced reporter expression (OStat3-PhCMVmin-SEAP-pA) and 50 ng of expression vectors for each GEMS receptor chain (PSV40-IgK-(drughigh receptor)-EpoRm-IL-6RBm-pA and PSV40-IgK-(druglow receptor-GGGGSX3-LD3)-EpoRm-IL-6RBm-pA). For the specific drughigh receptor and druglow receptor used in the different cellular assays, they are indicated as wild type or with mutations. […] For drug treatment experiments, drugs were added 12 h post-transfection and incubated with cells for 24 h before the SEAP reporter detection assay.
Binding affinities of SPR drug competition assays were calculated using three-parameter nonlinear regression in GraphPad Prism (v.8.3.0). Representative data of cell assays are presented as individual values and mean values (bars). n = 3 refers to biological replicates. All IC50 or EC50 values of cell assays reported were calculated using four-parameter nonlinear regression ± s.d. Bandpass features of cutoff concentrations and Bandwidth90% were estimated based on the curve fitted using bell-shaped curve nonlinear regression in GraphPad Prism (v.8.3.0).

[3] = target: GEMS receptors with Bcl2:LD3 in HEK293T cells (Homo sapiens, UniProt P10415); test: GEMS SEAP reporter assay, Bcl2:LD3 complex disruption; assay type: cell-based; design: key: SEAP activity in U/L; conditions: Supp Fig 3a
Method: HEK293T cells were seeded in a 96-well plate 24 h before transfection. The transfection mix in each well consisted of 3 ng of constitutive human CMV promoter driven mammalian STAT3 expression vector (PhCMV-STAT3-pA), 30 ng of STAT3-induced reporter expression (OStat3-PhCMVmin-SEAP-pA) and 50 ng of expression vectors for each GEMS receptor chain (PSV40-IgK-(drughigh receptor)-EpoRm-IL-6RBm-pA and PSV40-IgK-(druglow receptor-GGGGSX3-LD3)-EpoRm-IL-6RBm-pA). For the specific drughigh receptor and druglow receptor used in the different cellular assays, they are indicated as wild type or with mutations. Then, plasmid DNA was mixed with 50 μl opti-MEM (Thermo Fisher) and 600 ng of polyethyleneimine (Polysciences, catalog no. 24765-1). For drug treatment experiments, drugs were added 12 h post-transfection and incubated with cells for 24 h before the SEAP reporter detection assay.
as §1

[4] = system: LD3; test: SPR drug sensitivity of drug receptor variants (5 µM analyte mixed with 10 µM inhibitor, LD3 immobilized chip); assay type: binding; conditions: for drug resistance to venetoclax (binding response to LD3): 5 µM Bcl2 or variant + 10 µM Venetoclax
Method: Drug IC50 values for disrupting heterodimers were measured on a Biacore 8K device. A 5 µM portion of analyte was mixed with 10 µM of BclXL or Bcl2 inhibitors according to the analyte. The mixtures of analyte and drug were injected onto the LD3 immobilized channel. […]
(§2) Bcl2high-v(2,4,5) measured by SPR. 5 μM of Bcl2 or indicated variants were mixed with 10 μM of […]

[5] = system: LD3; test: SPR assay for protein–protein binding affinities (drug receptor variants over immobilized LD3); design: unit not given here; conditions: Supp Fig 6a
Method: SPR measurements were performed on a Biacore 8K device (GE Healthcare). The mutual designed binder (LD3) was immobilized on a CM5 chip (GE Life Science) as a ligand with the concentration at 5 μg ml^−1 for 120 s contact time in pH 4.5 sodium acetate solutions. Serial dilutions of the analytes (BclXL or Bcl2 and their variants) in HBS-EP buffer (10 mM HEPES, 150 mM NaCl, 3 mM EDTA and 0.005% surfactant P20; GE Life Science) were flowed over the immobilized chips. After each injection cycle, surface regeneration was performed using 10 mM NaOH (pH 11.95). Affinities (Kd) were obtained using a steady binding model of the equilibrium model with Biacore 8K evaluation software. […]
Dissociation constant measurement of BclXLhigh-v(1-3) and LD3. Equilibrium curves are fitted using
BclXLhigh-v1 (purple), BclXLhigh-v2 (blue), […]
Supplementary Figure 6: Binding affinities and drug resistances of Bcl2high-v(2,4,5) assessed by
a) Measurement of dissociation constants for Bcl2high-v(2,4,5) and LD3 interactions. Equilibrium curves
as §2

[6] = system: GEMS receptors with CBPvene (Bcl2–LD3 and Bcl2high variants), STAT3-driven SEAP in HEK293T cells; test: GEMS SEAP reporter assay, CBPvene (Bcl2high, LD3-v and Bcl2-v variants) with venetoclax; assay type: cell-based; conditions: Supp Fig 5c; for behavior of Bcl2high variants screened in CBP constructs: venetoclax exceeding 100 nM

GEMS receptors with Bcl2:LD3 in HEK293T cells, sequence (P10415 whole entry): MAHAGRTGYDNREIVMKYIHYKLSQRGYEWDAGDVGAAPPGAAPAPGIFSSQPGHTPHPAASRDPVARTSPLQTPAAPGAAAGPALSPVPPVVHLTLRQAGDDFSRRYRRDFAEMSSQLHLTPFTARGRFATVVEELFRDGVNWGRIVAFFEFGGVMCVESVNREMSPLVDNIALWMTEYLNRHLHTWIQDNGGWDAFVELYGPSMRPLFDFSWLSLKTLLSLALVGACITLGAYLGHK
GEMS receptors with BclXL:LD3 in HEK293T cells, sequence (Q07817 whole entry): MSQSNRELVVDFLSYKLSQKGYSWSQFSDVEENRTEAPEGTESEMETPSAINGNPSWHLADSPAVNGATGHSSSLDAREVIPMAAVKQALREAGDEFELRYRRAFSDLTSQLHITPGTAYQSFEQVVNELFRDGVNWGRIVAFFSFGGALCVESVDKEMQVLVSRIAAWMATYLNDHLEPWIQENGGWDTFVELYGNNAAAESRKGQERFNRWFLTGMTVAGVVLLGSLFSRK

Row | Molecule | drug resistance to venetoclax (binding response to LD3) [4] | SPR equilibrium binding response to LD3 ([5]; head: Venetoclax (nM) 1) | SEAP, screening of Bcl2high variants (raw) ([6]; Venetoclax 0) | SEAP, screening of Bcl2high variants, Normalized ([6]; Venetoclax 0) | SEAP, screening of Bcl2high variants (raw) ([6]; Venetoclax 0.0001) | SEAP, screening of Bcl2high variants, Normalized ([6]; Venetoclax 0.0001) | SEAP, screening of Bcl2high variants (raw) ([6]; Venetoclax 0.001) | SEAP, screening of Bcl2high variants, Normalized ([6]; Venetoclax 0.001) | SEAP, screening of Bcl2high variants (raw) ([6]; Venetoclax 0.01) | SEAP, screening of Bcl2high variants, Normalized ([6]; Venetoclax 0.01) | SEAP, screening of Bcl2high variants (raw) ([6]; Venetoclax 0.1) | SEAP, screening of Bcl2high variants, Normalized ([6]; Venetoclax 0.1) | SEAP, screening of Bcl2high variants (raw) ([6]; Venetoclax 1) | SEAP, screening of Bcl2high variants, Normalized ([6]; Venetoclax 1) | SEAP, screening of Bcl2high variants (raw) ([6]; Venetoclax 10) | SEAP, screening of Bcl2high variants, Normalized ([6]; Venetoclax 10) | SEAP, screening of Bcl2high variants (raw) ([6]; Venetoclax 100) | SEAP, screening of Bcl2high variants, Normalized ([6]; Venetoclax 100) | SEAP, screening of Bcl2high variants (raw) ([6]; Venetoclax 1000) | SEAP, screening of Bcl2high variants, Normalized ([6]; Venetoclax 1000) | other results
1 | CC1(C)CCC(c2ccc(Cl)cc2)=C(CN2CCN(c3ccc(C(=O)NS(=O)(=O)c4ccc(N[C@H](CCN5CCOCC5)CSc5ccccc5)c(S(=O)(=O)C(F)(F)F)c4)cc3)CC2)C1 [Navitoclax] |  |  |  |  |  |  |  |  |  |  |  |  |  |  |  |  |  |  |  |  | more potent activity to BclXL than to Bcl2 [1]: approximately 4.4 fold; Dip (bell-shaped fit, best-fit value) ([2]; CBPnavi, Fig 3c): 146.8; Plateau1 (bell-shaped fit, best-fit value) ([2]; CBPnavi, Fig 3c): 13.3; Plateau2 (bell-shaped fit, best-fit value) ([2]; CBPnavi, Fig 3c): 20.77; nH1 (bell-shaped fit, best-fit value) ([2]; CBPnavi, Fig 3c): -2.607; nH2 (bell-shaped fit, best-fit value) ([2]; CBPnavi, Fig 3c): -2.347; EC50 ([2]; Homo sapiens, HEK-293T, read-out: EC50_1 (bell-shaped fit, best-fit value)): 0.0665 µM; EC50 ([2]; Homo sapiens, HEK-293T, read-out: EC50_2 (bell-shaped fit, best-fit value)): 2.85 µM; EC50 ([2]; Homo sapiens, HEK-293T, read-out: EC50 of the ON phase): 0.065 µM; IC50 ([2]; Homo sapiens, HEK-293T, read-out: IC50 of the OFF phase): 2.82 µM; dose response (SEAP) ([3]; Navitoclax 1 nM): 217.89 and 244.414 and 201.569; dose response (SEAP) ([3]; Navitoclax 3.18 nM): 251.97 and 247.153 and 223.02; dose response (SEAP) ([3]; Navitoclax 10 nM): 225.391 and 249.837 and 220.973; dose response (SEAP) ([3]; Navitoclax 31.8 nM): 203.543 and 185.176 and 172.987; dose response (SEAP) ([3]; Navitoclax 100 nM): 207.157 and 228.932 and 148.919; dose response (SEAP) ([3]; Navitoclax 318 nM): 189.257 and 207.554 and 159.852; dose response (SEAP) ([3]; Navitoclax 1000 nM): 160.635 and 174.477 and 98.5023; dose response (SEAP) ([3]; Navitoclax 3180 nM): 138.28 and 140.892 and 97.3043; dose response (SEAP) ([3]; Navitoclax 10000 nM): 109.056 and 131.507 and 65.8832
2 | Bcl2: wild-type Bcl2, druglow receptor | completely inhibited |  |  |  |  |  |  |  |  |  |  |  |  |  |  |  |  |  |  |  | 
3 | Bcl2high-v4: Bcl2 variant (G101V) | intermediate binding responses; also recorded: more resistant than Bcl2high-v2 | 2.1472 | 6.603 | 2.711 | 4.145 | 0 | 8.202 | 4.476 | 7.174 | 3.342 | 7.666 | 3.884 | 5.264 | 1.235 | 24.5053 | 22.4596 | 94.7979 | 100 | 68.7379 | 71.253 | SPR equilibrium binding response to LD3 ([5]; head: Venetoclax (nM) 3.9): 10.112; SPR equilibrium binding response to LD3 ([5]; head: Venetoclax (nM) 15.6): 33.8883; SPR equilibrium binding response to LD3 ([5]; head: Venetoclax (nM) 62.5): 70.0059; behavior of Bcl2high variants screened in CBP constructs [6]: sharp decrease
4 | Bcl2high-v5: Bcl2 variant (D103Y) | intermediate binding responses | 0.849 | 2.765 | 3.49 | 2.523 | 2.743 | 3.266 | 5.042 | 2.791 | 3.572 | 1.758 | 0.3721 | 1.638 | 0 | 7.093 | 16.9022 | 33.9111 | 100 | 29.4352 | 86.1311 | SPR equilibrium binding response to LD3 ([5]; head: Venetoclax (nM) 3.9): 3.873; SPR equilibrium binding response to LD3 ([5]; head: Venetoclax (nM) 15.6): 14.2982; SPR equilibrium binding response to LD3 ([5]; head: Venetoclax (nM) 62.5): 37.6477; behavior of Bcl2high variants screened in CBP constructs [6]: sharp decrease
5 | Bcl2high-v7: Bcl2 variant (D103E) |  |  | 6.691 | 0 | 7.426 | 0.7213 | 7.62 | 0.9112 | 12.5658 | 5.763 | 10.093 | 3.337 | 14.5573 | 7.717 | 26.197 | 19.1352 | 97.9682 | 89.5427 | 108.628 | 100 | 
6 | BclXL: wild-type BclXL, druglow receptor |  |  |  |  |  |  |  |  |  |  |  |  |  |  |  |  |  |  |  |  | drug resistance to A-1155463 (binding response to LD3) ([4]; 5 µM BclXL or variant + 10 µM A-1155463): completely inhibited
